Laboratory results published in a melting point compilation (Tetko et al.; mined from patent text by program, amines drawn as free bases though some values may be those of a salt).

SMILES	melting point [°C]
CCCCCCCCCCCCNC(=O)CSCc1cc(C(C)(C)C)c(O)c(C(C)(C)C)c1	43 to 46
CCCCCCCCCCCCSc1cc(SCCCCCCCCCCCC)c([N+](=O)[O-])c(C(=O)O)c1	74 to 77
Cc1c2c(nn1-c1ccc(Cl)cc1F)CCCC2	84.5 to 87.5
CCOCC1=CC(=O)C=C2CCC3C4CCC(=O)C4(C)CCC3C21C (stereo not drawn)	95 to 98
O=C(Nc1ccc(OCc2ccccn2)nc1)N1CCc2ccc(C(F)(F)F)cc21	178 to 179
OCCOCCOCCN1CCC(=C2c3ccccc3CC(O)c3sccc32)CC1 (stereo not drawn)	110 to 113
O=C(C=C1CCCCC1)C1Cc2c([nH]c3ccccc23)C(c2ccc3c(c2)OCO3)N1 (stereo not drawn)	116 to 118
COC(=O)NNC(=S)CC(C)(C)C	72.5 to 73
O=Cc1c[nH]c2c1ccc1c3ccc(Br)cc3[nH]c12	> 250
COc1cc(-c2nc(N3CCOCC3)c3c(C)c(C#N)sc3n2)cc(OC)c1OC	> 250
O=C(Sc1ccccn1)c1ccc(I)cc1	127
CCn1c(C)cc(=O)nc1S	190
CCCc1c(OCC(O)COc2ccc3ccc(C(=O)O)cc3c2CCC)ccc(C(C)=O)c1O (stereo not drawn)	125 to 126
O=C(NCCO)c1ccc(CCN2CCN(Cc3ccccc3Cl)CC2)cc1	121 to 122
Cc1nnn2c1CO[C@H]1CN(C(=O)OC(C)(C)C)C[C@@H]12	195 to 196
N#Cc1c(Cl)c(Cl)n(CC#CI)c1-c1ccc(Cl)c(Cl)c1	115 to 116
Cc1c(C(F)(F)F)cc(Cl)c(-n2cnc(C(F)(F)F)cc2=O)c1Cl	204 to 206
CCCCn1ncc2c1nc(N)n1nc(-c3ccco3)nc21	157 to 158
COc1ccc(-c2nc(S)[nH]c2-c2ccncc2)cc1	280
CC(C)[C@@H]1C[C@@H](CO)NC1=O	55.9
O=C(Oc1ccc(O)cc1)c1ccc(O)cc1	242 to 245
CCOC(=N)c1ccc(Cl)c(Cl)c1	62 to 64
CN(C(CCn1c(=O)cc(C(F)(F)F)[nH]c1=O)C(=O)NO)S(=O)(=O)c1ccc(Oc2ccc(Cl)cc2)cc1 (stereo not drawn)	173 to 174

SMILES	melting point [°C]
CCOP(=O)(Cc1ccc(NC(=O)CCc2cnoc2-c2ccccc2)cc1)OCC	139 to 140
CCc1nc(NC(C)=O)nc(NC(C)c2cccs2)n1 (stereo not drawn)	153
CCCOc1ccc(-c2c(Cl)ncn2-c2ccc(S(C)(=O)=O)cc2)cc1	161 to 163
CCCc1c(OCCCOCCCOc2c(C(C)=O)ccc(OCC(=O)O)c2CCC)ccc(C(C)=O)c1O	86 to 90
C=CCNC(=O)Nc1ccccc1CCc1cc(C(C)(C)C)c(O)c(C(C)(C)C)c1	169 to 172
CCC(C)(C)c1cc(C(=O)COc2ccc(C=O)cc2OC)cc(C(C)(C)CC)c1O	106 to 107
CC(=O)SCc1ccc(I)cc1	40 to 41
COc1ccc(C(O)c2ccc3cc(OC)ccc3c2)c(F)c1 (stereo not drawn)	68 to 69
COc1ccc(S(=O)(=O)N2CC3CCC(CC3)C2)c2ccccc12	168 to 170
Clc1ccccc1-n1nnnc1Cl	101 to 103
CSc1nc(Cl)cc(N(C)C)n1	102
CCCc1nc2c(N)nc3cc(O)ccc3c2s1	236 to 239
COC(=O)C12CCc3cc(Cl)ccc3C1=NN(C(=O)Nc1ccc(C(F)(F)F)cc1)C2 (stereo not drawn)	234 to 236
CCN(C=O)c1ccccc1C(=O)COC(=O)c1ccccc1	78 to 80
Cc1cc2cc(CN3CCC(CC(N)=O)CC3)cnc2cc1NC(=O)c1ccc(-c2ccc(F)cc2)cc1	249
Cc1oc(C)c(C(=O)O)c1C(=O)O	232 to 235
Cn1cc(Oc2ccc(Cl)cc2)c(=O)c(-c2cccc(C(F)(F)F)c2)c1	90 to 91
O=C(NNc1ccc(NC(=S)Nc2ccccc2)cc1)c1ccccc1	149 to 151
CCCC[C@H](C)CC(=O)N[C@H](CCC(=O)N[C@@H](C)C(=O)N[C@H](C)C(=O)O)C(=O)O	165 to 168
COc1cc(C)cc(-c2nn(CC#N)cc2-c2cc(NC[C@H](C)O)nc(Cl)n2)c1	197
COc1ccc(CC(=O)c2c(O)c3cccnc3n(-c3ccccc3)c2=O)cc1OC	161 to 163
CCCCN(C(C)=O)c1cccc(-c2ccnc3c(C#N)cnn23)c1	146 to 148
Cn1c(-c2ccc(N3CCOCC3)cc2)cnc1[C@H](Cc1ccccn1)N(C=O)c1cc2cc(Br)ccc2o1	173 to 174

SMILES	melting point [°C]
CCOC(=O)ONC(=N)COc1cc(OCC(=N)NOC(=O)OCC)c2c(C)c(Cc3ccccc3)c(=O)oc2c1	87 to 92
C(#COCC1CCN(Cc2ccccc2)CC1)Cc1ccccc1	120 to 123
COc1ccc(-n2c(-c3ccc(N(C)C)cc3)nnc2C(C)O)cc1 (stereo not drawn)	190
CSc1nc(-c2ccc(F)cc2)c(-c2ccnc(OC(C)C)c2)[nH]1	141
COc1ccc(Cn2ncc3nc(Cl)nc(Cl)c32)cc1	100 to 101
O=C(O)CCCCCOc1cccc(OCc2ccccc2)c1	72 to 73
CC(C)(C)C(Cl)=CC(=O)O	146 to 148
Nc1nc(C2CC2)nc(C(Cl)(Cl)Cl)n1	111 to 114
C=C(C)C(=O)OCc1ccc(C#Cc2ccc(OC(=O)C(=C)C)cc2)cc1	65
O=S1(=O)NC2CCCN2c2c(F)cc(O)cc21 (stereo not drawn)	167 to 169
O=C(O)c1cccc(-c2nnc(-c3ccc(C(F)(F)F)cc3)o2)c1	239 to 240
Brc1ccc(-c2ccc(-c3ccc(Br)cc3)o2)cc1	198 to 199
CCCc1nn(-c2ccc(C(F)(F)F)cn2)cc1CCCOc1nn(C2CCCCC2)cc1CC(=O)O	127 to 128
O=C1C2CCCN2c2ncccc2N1Cc1ccccc1 (stereo not drawn)	222 to 225
COC(=O)COc1ccc(C)c2c1c1c(n2Cc2ccccc2)CCCC1C(N)=O (stereo not drawn)	209
CCOC(=O)CCCCC(=O)c1c(CBr)n(C(C)=O)c(=O)n1C(C)=O	114 to 115
Cc1ccc(-c2c(C(=O)NCc3ccccc3)n(CC[C@@H](C)CO)c(=O)c3ncccc23)cc1	226 to 227
CCCCCCSCCSc1nc2nc(C)cc(O)n2n1	126
O=c1c(Cc2ccncc2)c(-c2ccc(F)cc2)[nH]c2ccccc12	144 to 146
CC(C)(C)C1CCN(CCCC(=O)c2ccc3c(c2)-c2ccc(C(=O)CCCN4CCC(C(C)(C)C)CC4)c4cccc-3c24)CC1	150 to 152
Cc1nc2c3c(c(CO)cn2c1C)CCC(c1ccccc1)C3 (stereo not drawn)	290 to 292
CCCCSc1cnc2c(c1)CCC(c1ccc(Cl)c(Cl)c1)O2 (stereo not drawn)	59.5 to 61

Next, values leading:

melting point [°C]	SMILES
158 to 160	N#CC(Cc1ccccc1)=NNc1ccc([N+](=O)[O-])cc1
196	CCOC(=O)C(C(C)=O)C1NC(=O)c2sccc2-n2cccc21 (stereo not drawn)
89 to 91	O=C1CC(O)CC(/C=C/c2ccccc2-c2ccccc2)O1 (stereo not drawn)
66 to 68	O=C1CCCc2ccn(-c3ccccc3)c21
235 to 237	Cc1c(C#N)cc2ccc3c(c2c1Br)C(C)(C)C(=O)O3
169 to 171	COCOc1ccccc1-c1cc(-c2cccc([N+](=O)[O-])c2)c(C#N)c(N)n1
193 to 194	O=C1c2cc(Br)ccc2COc2ccc(Br)cc21
98	CCOC(=O)C(C)Oc1ccc(Oc2cnc3ccc(Cl)cc3c2)cc1 (stereo not drawn)
142 to 144	CC1(C)OCCc2c1[nH]c1ccccc21
40 to 43	CCOC(=O)c1cc(N)ccc1O
153 to 155	COc1ccccc1-c1c(C2CCN(C)CC2)[nH]c(=O)c2ccccc12
> 300	Cc1nc2nc3cc(Cl)ccc3nc2[nH]1
166 to 169	CCOC(=O)C1(Cc2ccc(OC)c(OC)c2)C(=S)NCC1c1ccc(OC)c(OC)c1 (stereo not drawn)
191 to 193	C#CCCN1C(=O)c2cccc3cccc(c23)C1=O
161 to 164	Cn1cc(-c2ccccc2)c(=O)c(-c2cccc(S(C)=O)c2)c1 (stereo not drawn)
242 to 244	Nc1ccc(C2=NNC(=O)Cc3cc4c(cc32)OCO4)cc1
78	CC1C(=O)c2cc([N+](=O)[O-])ccc2OC1(C)C (stereo not drawn)
137 to 140	Cc1[nH]c2ccccc2c1C(=O)CCCl

melting point [°C]	SMILES
138 to 139	CCCNC(=O)c1ccc(/C=C(\C)c2ccc3c(c2)C(C)(C)CCO3)cc1
219 to 221	O=C(O)COc1cc(Br)c2oc3ccccc3c(=O)c2c1
145	NC(=O)n1nc(-c2ccco2)cc1N
127 to 129	Cn1ccnc1Sc1ccc(Cl)cc1N
176 to 177	CCCN(Cc1ccc(-c2ccccc2-c2nc(=O)o[nH]2)cc1)c1nc(C)ncc1C(=O)OCC
158 to 161	Cc1cc([N+](=O)[O-])c(NC(C)C(=O)O)c([N+](=O)[O-])c1 (stereo not drawn)
139	O=c1n(Cc2ccc([N+](=O)[O-])cc2)c2ccc(Cl)cc2n1C1CCCCC1
106 to 109	CC(C)Oc1ccc(NC(=O)C2(C)CC2)cc1C(F)(F)F
122 to 123	CC1CCC(C(C)C)C(OC(=O)C2(CC(N)=O)C(=O)N(Cc3ccc(Br)cc3F)C(=O)c3cccn32)C1 (stereo not drawn)
217	CCOC(=O)C1(CC(=O)O)C(=O)C=C(OCc2ccccc2)CC1c1ccc(C)cc1 (stereo not drawn)
76	CSSc1ccc([N+](=O)[O-])cc1C(Cl)(Cl)Cl
160 to 162	CCNC1CCN(c2c(F)cc3c(=O)c(C(=O)O)cn(C4CC4)c3c2OC)CC1C (stereo not drawn)
209 to 210	CC1CC(=O)NN=C1c1ccc(NC(=NC#N)NCCc2ccccc2)cc1 (stereo not drawn)
92	COC(=O)c1ccc(N2CCC(N(C)Cc3ccc(F)cc3)CC2)cc1
185 to 188	O=C(O)C1=Cc2cc(Cl)c(-c3ccccc3)cc2OC1C(F)(F)F (stereo not drawn)
157 to 158	CCCCOc1c(CNC(=O)OC(C)(C)C)n(CC(C)C)c(=O)c2ccc(-c3ccco3)cc12
155 to 156	CCCCC(=O)Nc1ncc([N+](=O)[O-])s1
